Measurements as given in patent US7138242B2, “Olfactory receptor expression libraries and methods of making and using them” (Johns Hopkins University, priority 1998, dated 2006).

Key:
[1] = test system: mouse olfactory receptor TM II–VII chimeric receptor library (pools of clones); assay: Ca2+ imaging screen of 80 library chimeric receptors (10 pools of eight constructs) against 26 odorants in HEK-293 cells with Gα15,16; assay type: cell-based; conditions: for response of a library receptor: micromolar concentrations, three receptors, respectively
Experimental: (§1) HEK-293 cells (obtained from the ATCC) were grown in DMEM supplemented with 10% fetal bovine serum, penicillin (100 U/ml), streptomycin (100 μg/ml) and L-glutamine (2 mM) in 5% CO2. Before transfection, the cells were seeded onto poly-L-lysine-coated 10.5×35×0.17 mm glass coverslips (Bellco) placed in the 60 mm culture dishes. Calcium phosphate-mediated transfections were performed in a 60 mm dish with 3 to 4 μg of receptor construct DNA, 1 μg of pCIS Gα 15 and Gα16 expression vector (Offermanns (1995) supra). 2 μg of pBluescript carrier DNA, and 0.3 μg of pRSV-T antigen expression vector (Gorman (1990) DNA and Protein Eng. Tech. 2:3–9). After 5 to 7 hr incubation, the cells were washed once with PBS containing 0.5 mM EDTA and 10% DMSO, then with PBS before continuing growth in regular media for 40–50 hr.
(§2) These transfected cells were then tested for their ability to functionally respond to ligand-receptor binding. The ligand, the adrenergic agonist isoproterenol, was “bath” applied to the transfected cells and single cell Ca^2+-imaging was performed. Cells were pre-loaded with the Ca^2+-sensitive fluorescent dye FURA-2 AM (Molecular Probes) by bathing in serum-free DMEM containing 4 μM of the membrane permeant chemical for 1 hr at 37° C., then washed with a standard bath solution (130 mM NaCl, 2 mM CaCl2, 5 mM KCl, 10 mM glucose, 10 mM Na.HEPES/pH 7.4 at room temperature). For each experiment, a glass coverslip with FURA-2 loaded HEK 293 cells was introduced into an open-topped, longitudinal microperfusion chamber (300 μl bath volume mounted on a Zeiss Axiovert 135 microscope equipped with an F Fluar 40×/1.30 oil-immersion lens. The cells were superfused with test solutions typically for 30 to 40 seconds (5 ml/application) and washed out with 5 ml of bath solution at the end of each application. Each test solution was freshly diluted and manually applied with a micropipette into the chamber. Because of this manual procedure, there could be several seconds of delay in actual application from electronic tick marks used to define the beginning of application in each graph. At the same time, the solution flow might not be completely laminar. In most cases, the onset of Ca2+ rise in response to a specific solution occurred within 15 seconds of the beginning of solution application, though longer delays were sometimes observed. Acetylcholine was applied at the end of each experiment at 10 μM for 15–20 seconds. Ratiometric Ca^2+ measurements were performed as described by Grynkiewicz (1985) 260:3440–3450, with modifications using the Zeiss/Attofluor-Ratiovision imaging system. At 5-second intervals, the cells were sequentially illuminated for less than 100 ms, first at 340 nm and then at 380 nm. Fluorescence emission at 510 nm was monitored for each excitation wavelength via an intensified CCD camera. Averaged pixel intensities within 40 to 100 regions of interest, corresponding to 40 to 100 individual cells, were digitized and stored on a computer. Attofluor-Ratiovision software (Atto Instruments) was used to determine the Ca^2+-dependent fluorescence signal expressed as the F340/F380 ratio.
The 7-transmembrane domain region TM II–VII expressing vector libraries of the invention were expressed in this cell expression system. Various odorant were screened for their ability to generate a physiologic response in the form of a calcium transient, as above. Eighty plasmid clones arrayed in microtiter plates were pooled into 10 groups of eight constructs each, and co-transfected with Gα15,16 into HEK-293 cells. […]

[2] = test system: I-D3 chimeric olfactory receptor; assay: Ca2+ imaging, individual clone I-D3 in HEK-293 cells with Gα15,16; assay type: cell-based, mouse
Experimental: These transfected cells were then tested for their ability to functionally respond to ligand-receptor binding. The ligand, the adrenergic agonist isoproterenol, was “bath” applied to the transfected cells and single cell Ca^2+-imaging was performed. Cells were pre-loaded with the Ca^2+-sensitive fluorescent dye FURA-2 AM (Molecular Probes) by bathing in serum-free DMEM containing 4 μM of the membrane permeant chemical for 1 hr at 37° C., then washed with a standard bath solution (130 mM NaCl, 2 mM CaCl2, 5 mM KCl, 10 mM glucose, 10 mM Na.HEPES/pH 7.4 at room temperature). […] Fluorescence emission at 510 nm was monitored for each excitation wavelength via an intensified CCD camera. […] Attofluor-Ratiovision software (Atto Instruments) was used to determine the Ca^2+-dependent fluorescence signal expressed as the F340/F380 ratio. […]

[3] = test system: full-length I-C6 receptor fused to translocation domain (rhodopsin tag); assay: Ca2+ imaging, full-length I-C6 receptor with rhodopsin tag in HEK-293 cells; assay type: cell-based, mouse
Experimental: PCR products were digested with PstI and BspEI restriction enzymes before size fractionation, purification and ligation into the pCMV-Rho/M4NC vector (see FIG. 1A). The vector ligation products were transformed into E. coli and 480 clones were placed in 96-well plates. […] Pools of cells from a single column of the plates (8 wells) were grown in a 50 ml culture and plasmid DNA prepared. Insert-containing vectors containing: the 5′-untranslated region of the rhodopsin gene, which included its coding region for the initiation methionine and the next 19 residues; joined to a full-length cDNA for a mouse olfactory receptor (M4 or I-C6), under the control of the CMV promoter, were also prepared. The full-length coding region of olfactory receptors mI7 and I-C6 were obtained by screening a mouse (129 SV/J) genomic phage (λFIX-II) library (2×10^6 independent clones) using ^32P-labeled DNA fragments (of TMII through VII sequence) of the respective receptors under stringent conditions (hybridized at 0.2×SSC at 65° C.). DNA fragments encoding the full-length receptors were cloned into pBluescript (Stratagene) and sequenced.
as §2
To determine if these physiologic responses were caused by ligand interaction with a full-length 7-membrane receptor, a genomic clone of the entire I-C6 receptor coding sequence was isolated and used to make a chimeric molecule incorporating the tranlocation domain of the invention (the “rhodopsin tag” sequence). The full-length I-C6 receptor retained the same stereo-selectivity as a chimeric receptor construct whose only I-C6 sequence was the transmembrane domains II through VII (i.e., the odorant/ligand binding domain). […]

[4] = test system: Rho/M4NC-β2 TM II–VII (TM II–VII region from the β2-adrenergic receptor in pCMV-Rho/M4NC); assay: Single-cell FURA-2 Ca2+ imaging, HEK-293 cells co-transfected with Rho/M4NC-β2 TM II–VII and Gα15,16; assay type: cell-based, human
Experimental: HEK-293 cells (obtained from the ATCC) were grown in DMEM supplemented with 10% fetal bovine serum, penicillin (100 U/ml), streptomycin (100 μg/ml) and L-glutamine (2 mM) in 5% CO2. […] After 5 to 7 hr incubation, the cells were washed once with PBS containing 0.5 mM EDTA and 10% DMSO, then with PBS before continuing growth in regular media for 40–50 hr.
Efficient screening of expressed olfactory receptors with a large number of ligands by functional analysis requires a robust and sensitive assay system. […] In this reporter system, (olfactory) receptor activation leads to the generation of an IP3-mediated increase in intracellular Ca^2+, which can be measured at the single-cell level with high sensitivity and good temporal resolution using the dye FURA-2 and radiofluorometric imaging.
A construct with the TM II–VII region from the β2-adrenergic receptor inserted in the pCMV-Rho/M4NC vector (Rho/M4NC-β2 TM II–VII) was co-transfected with Gα15,16 into HEK-293 cells. […] Images of fluorescent cells were obtained on a Zeiss 510 confocal microscope with excitation at 488 nm.
These transfected cells were then tested for their ability to functionally respond to ligand-receptor binding. The ligand, the adrenergic agonist isoproterenol, was “bath” applied to the transfected cells and single cell Ca^2+-imaging was performed. Cells were pre-loaded with the Ca^2+-sensitive fluorescent dye FURA-2 AM (Molecular Probes) by bathing in serum-free DMEM containing 4 μM of the membrane permeant chemical for 1 hr at 37° C., then washed with a standard bath solution (130 mM NaCl, 2 mM CaCl2, 5 mM KCl, 10 mM glucose, 10 mM Na.HEPES/pH 7.4 at room temperature). […] Acetylcholine was applied at the end of each experiment at 10 μM for 15–20 seconds. […] At 5-second intervals, the cells were sequentially illuminated for less than 100 ms, first at 340 nm and then at 380 nm. Fluorescence emission at 510 nm was monitored for each excitation wavelength via an intensified CCD camera. Averaged pixel intensities within 40 to 100 regions of interest, corresponding to 40 to 100 individual cells, were digitized and stored on a computer. Attofluor-Ratiovision software (Atto Instruments) was used to determine the Ca^2+-dependent fluorescence signal expressed as the F340/F380 ratio.

[5] = test system: endogenous β-adrenergic receptors; assay: Single-cell FURA-2 Ca2+ imaging, HEK-293 cells transfected with the G protein subunits (Gα15,16) alone; assay type: cell-based, human; conditions: no receptor construct
Experimental: as §1
These transfected cells were then tested for their ability to functionally respond to ligand-receptor binding. The ligand, the adrenergic agonist isoproterenol, was “bath” applied to the transfected cells and single cell Ca^2+-imaging was performed. […] Fluorescence emission at 510 nm was monitored for each excitation wavelength via an intensified CCD camera. […] Attofluor-Ratiovision software (Atto Instruments) was used to determine the Ca^2+-dependent fluorescence signal expressed as the F340/F380 ratio. […]

[6] = test system: I-G7 chimeric olfactory receptor; assay: Ca2+ imaging, individual clone I-G7 in HEK-293 cells with Gα15,16; assay type: cell-based, mouse; conditions: 10 μM
Experimental: These transfected cells were then tested for their ability to functionally respond to ligand-receptor binding. The ligand, the adrenergic agonist isoproterenol, was “bath” applied to the transfected cells and single cell Ca^2+-imaging was performed. Cells were pre-loaded with the Ca^2+-sensitive fluorescent dye FURA-2 AM (Molecular Probes) by bathing in serum-free DMEM containing 4 μM of the membrane permeant chemical for 1 hr at 37° C., then washed with a standard bath solution (130 mM NaCl, 2 mM CaCl2, 5 mM KCl, 10 mM glucose, 10 mM Na.HEPES/pH 7.4 at room temperature). For each experiment, a glass coverslip with FURA-2 loaded HEK 293 cells was introduced into an open-topped, longitudinal microperfusion chamber (300 μl bath volume mounted on a Zeiss Axiovert 135 microscope equipped with an F Fluar 40×/1.30 oil-immersion lens. The cells were superfused with test solutions typically for 30 to 40 seconds (5 ml/application) and washed out with 5 ml of bath solution at the end of each application. Each test solution was freshly diluted and manually applied with a micropipette into the chamber. Because of this manual procedure, there could be several seconds of delay in actual application from electronic tick marks used to define the beginning of application in each graph. At the same time, the solution flow might not be completely laminar. In most cases, the onset of Ca2+ rise in response to a specific solution occurred within 15 seconds of the beginning of solution application, though longer delays were sometimes observed. Acetylcholine was applied at the end of each experiment at 10 μM for 15–20 seconds. Ratiometric Ca^2+ measurements were performed as described by Grynkiewicz (1985) 260:3440–3450, with modifications using the Zeiss/Attofluor-Ratiovision imaging system. […] Fluorescence emission at 510 nm was monitored for each excitation wavelength via an intensified CCD camera. […] Attofluor-Ratiovision software (Atto Instruments) was used to determine the Ca^2+-dependent fluorescence signal expressed as the F340/F380 ratio. […]

C=C(C)[C@H]1CC=C(C)C(=O)C1 [(+) carvone] was tested, and the “intracellular Ca2+ response of a clone pool” value ([1]; 10 μM, odorants applied sequentially) was “lack of response” and the “intracellular Ca2+ response” value [2] was “responsive”.
With CC(C)=CCC/C(C)=C/C=O [+/− citral] the “intracellular Ca2+ response” value ([3]; 30 μM) was “only 30 μM (−) citronellyl bromide elicited a small response”.
With C=C(C)C1CC=C(C)C(=O)C1 (centres unmarked) [carvone] the “intracellular Ca2+ response” value ([3]; 100 μM) was “no responses” and the “response of a library receptor” value [1] was “responded”.
For CC(C)NCC(O)c1ccc(O)c(O)c1 (centres unmarked) [isoproterenol], the “intracellular Ca2+ response (FURA-2 F340/F380)” value ([4]; bath application, cells co-transfected with Gα15,16) was “transient increase in intracellular Ca^2+”, the “Ca2+ response to a second application” value ([4]; second application (desensitization)) was “frequently failed to elicit a response” and the “dependence of the Ca2+ transient on Gα15,16” value ([4]; with vs without cotransfected Gα15,16) was “dependent on cotransfection with the Gα15,16 subunits”. The “intracellular Ca2+ response” value [5] was “small response”.
For C=C(C)[C@H]1CC=C(C)CC1 [limonene], the “intracellular Ca2+ response” value ([3]; 100 μM) was “no responses” and the “response of a library receptor” value [1] was “responded”.
(−) citral demethyl acetal was tested, and the “intracellular Ca2+ response” value ([3]; 30 μM) was “only 30 μM (−) citronellyl bromide elicited a small response”.
(−) limonene was tested, and the “Ca2+ response relative to the (+) isomer” value [6] was “perhaps not as well” and the “intracellular Ca2+ response” value [6] was “responded”.
